# Assay results from patent US7754852B2, “Natriuretic polypeptides” (Mayo Foundation for Medical Education and Research, priority 2007, dated 2010).
# Where a SMILES comes first, the peptide text is derived from it. Bridges are numbered along the chain shown (N, C = ends). Where no end group is shown, it is not given here.
# What was measured:
# [1] = system: normal anesthetized dogs; test: Cardiorenal function in normal anesthetized dogs, consecutive i.v. infusions of 10, 50 and 100 ng/kg/minute; type: in vivo, dog
# Protocol: Cardiorenal function was assessed in three normal anesthetized dogs. […] Tubular Na^+ reabsorption and GFR were assessed by clearance of Li^+ and inulin, respectively. Neurohormones were quantified by radioimmunoassays. Data were analyzed by repeated measures ANOVA followed by Dunnett's test.
# [2] = system: normal anesthetized dogs; test: Hemoconcentrating effects (hematocrit) of i.v. infusion at 14 pmol/kg/minute in normal anesthetized dogs; type: in vivo, dog
# Protocol: Three human NPs (BNP, CNP, URO, and CU-NP were studied to evaluate their effects on vascular permeability as manifested by an increase in hematocrit. Normal anesthetized dogs received i.v. infusions of BNP (n=7), CNP (n=6), URO (n=5), or CU-NP (n=6) at 14 pmol/kg/minute. Blood was collected in EDTA tubes on ice and centrifuged. Data are reported for base-line and at 60 minutes of infusion. In addition to increasing hematocrit (Table 5), CU-NP reduced PCW pressure in vivo (baseline 6±0.9 mmHg, 60 minutes 3±0.9 mmHg; P<0.05). Thus, hemoconcentrating effects of CU-NP may contribute to its cardiac-unloading actions in vivo.
# [3] = system: normal anesthetized dogs; test: In vivo renal perfusion pressure, i.v. infusion at 14.14 pmol/kg/minute for 75 minutes; design: species or system dog; conditions: RPP estimated by MAP−RAP
# Protocol: Studies were conducted to determine the in vivo actions of CNP, CU-NP and URO on renal perfusion pressure (RPP, as estimated by MAP-RAP), as RPP is a key determinant of renal function. Given the GFR-enhancing action of CU-NP, in vitro studies also were done to test the hypothesis that CU-NP (unlike CNP) also activates NPR-A, a potent renal acting NP receptor. Equimolar doses of CU-NP, human CNP, or human URO were intravenously infused at 14.14 pmol/kg/minute into 17 normal anesthetized dogs for 75 minutes. RPP was assessed at baseline and at 60 minutes of infusion. Data are expressed as mean±SEM. Clearances were measured from the 16th to the 45th minute and from the 46th to the 75th minute following initiation of peptide infusion. Within each group, 2-tailed paired t-test was used to compare RPP at 60 minutes of peptide infusion vs. baseline. Comparisons between groups were made by two-way ANOVA followed by Bonferroni post-test.
# [4] = system: isolated canine glomeruli; test: cGMP stimulation in isolated canine glomeruli; type: cell-based; conditions: 10^−5 M
# Protocol: Experiments were conducted to determine whether CU-NP directly stimulates cGMP in isolated glomeruli, and to compare the cGMP-activating actions of CU-NP with CNP, URO, and CNP-C, which consisted of the full-length 22-AA of CNP with a duplicate of the N-terminus fused in the C-terminal position. Glomeruli were isolated upon harvest of normal canine kidneys. CU-NP, CNP, URO, and CNP-C (10^−5 M) were incubated with glomeruli vs. control. Cyclic GMP was measured by RIA, with correction for protein levels. CU-NP and URO elicited greater cGMP responses than respective controls (P<0.01), but without difference between groups. CU-NP and URO stimulated greater cGMP responses vs. CNP and vs. CNP-C (P<0.001).
# [5] = system: human aortic endothelial cells (HAEC); test: cGMP response in HAEC in the absence or presence of NPR-B antibody; type: cell-based; conditions: 10^−6 M, 10 minutes
# Protocol: (§1) cGMP responses to the 3 peptides also were assessed in glomeruli isolated from canine kidneys upon harvest, in the presence or absence of an NPR-A antagonist, […] (1 μM), or an NPR-B antagonist, […] (1 μM), or both antagonists added sequentially (A71915 followed by […], 1 μM final concentration for both). To confirm the involvement of NPR-B in the cGMP response to CU-NP, additional experiments were conducted using human aortic endothelial cells (HAEC). Cyclic GMP response was determined by incubating CU-NP (10^-6 M) for 10 minutes in the absence or presence of an antibody to the ligand-binding domain of NPR-B. In vitro data (mean±SEM) were analyzed by one-way ANOVA followed by Bonferroni's post-test. Statistical significance was defined as P<0.05. GraphPad Prism 4 (GraphPad Software, San Diego, Calif.) was used for statistical analyses.
# [6] = system: normal anesthetized dogs; test: Renal, cardiovascular and neurohumoral effects of i.v. infusion at 50 ng/kg/minute for 75 minutes in normal anesthetized dogs; type: in vivo, dog
# Protocol: CU-NP or CNP polypeptide was intravenously infused into normal anesthetized dogs at 50 ng/kg/minute for 75 minutes. Blood and urine samples were collected pre-infusion (pre-I), at 30 and 60 minutes of infusion, and post-infusion (post-I). Inulin clearance was used for assessment of glomerular filtration rate (GFR). The lithium clearance technique was used for measurement of proximal and distal fractional reabsorption of Na^+ (PFRNa and DFRNa, respectively). Comparisons at the latter three time points versus pre-I were made. Student's t-test was used when comparing results for two time points, whereas repeated measures ANOVA was used to compare four time points.
# [7] = system: isolated canine glomeruli; test: cGMP response in isolated canine glomeruli with or without NPR-A antagonist and NPR-B antagonist; type: cell-based; conditions: 10^−5 M, no antagonist
# Protocol: as §1
# [8] = 60 min of i.v. infusion at 14 pmol/kg/minute
# [9] = 60 minutes of i.v. infusion at 14.14 pmol/kg/minute
# [10] = 30 minutes of infusion, 50 ng/kg/minute i.v.
# [11] = 60 minutes of infusion, 50 ng/kg/minute i.v.
molecule,measurement,setting,value
CC[C@H](C)[C@@H]1NC(=O)[C@H](CCCNC(=N)N)NC(=O)[C@H](CC(=O)O)NC(=O)[C@H](CC(C)C)NC(=O)[C@H](CCCCN)NC(=O)[C@H](CC(C)C)NC(=O)CNC(=O)[C@H](Cc2ccccc2)NC(=O)[C@@H](NC(=O)[C@H](CO)NC(=O)[C@H](CO)NC(=O)[C@H](CCCNC(=N)N)NC(=O)[C@H](CCCNC(=N)N)NC(=O)[C@H](CC(C)C)NC(=O)[C@H](CO)NC(=O)[C@H](CCCNC(=N)N)NC(=O)[C@@H]2CCCN2C(=O)[C@H](C)NC(=O)[C@@H](N)[C@@H](C)O)CSSC[C@@H](C(=O)N[C@@H](CC(N)=O)C(=O)N[C@@H](CO)C(=O)N[C@@H](Cc2ccccc2)C(=O)N[C@@H](CCCNC(=N)N)C(=O)N[C@@H](Cc2ccc(O)cc2)C(=O)O)NC(=O)CNC(=O)[C@H](CC(C)C)NC(=O)CNC(=O)[C@H](CO)NC(=O)[C@H](CCSC)NC(=O)[C@H](CO)NC(=O)CNC1=O [CU-NP] (H-TAPRSLRRSSCFGLKLDRIGSMSGLGCNSFRY-OH; disulfide 11-27),QTc interval,[1]; end of infusion at 100 ng/kg/minute,329 ± 15 ms
same,QTc interval,[1]; pre-infusion,323 ± 6 ms
BNP: human NP (natriuretic peptide) BNP,Hematocrit (mean ± SEM),[2]; [8],40 ± 2 %
same,Hematocrit (mean ± SEM),[2]; Baseline,36 ± 1%
"CNP: human CNP, mature natriuretic polypeptide of 22 amino acids",RPP (mean ± SEM),[3]; [9],123 ± 8 mmHg
same,RPP (mean ± SEM),[3]; Pre-I,120 ± 4 mmHg
same,Hematocrit (mean ± SEM),[2]; [8],37 ± 1%
same,Hematocrit (mean ± SEM),[2]; Baseline,36 ± 1%
same,cGMP (mean ± SEM),[4],0.0019 ± 0.0005 fmol/µg
same,cGMP,[5]; in the presence of the NPR-B antibody (1:100),0.08 ± 0.01 pmol/mL
same,cGMP,[5]; no antibody,0.17 ± 0.04 pmol/mL
same,DFRNa+,[6]; [10],98 ± 0.8%
same,GFR,[6]; [10],42 ± 4 mL/min
same,Na^+ excretion,[6]; [10],56 ± 21 μEq/min
same,PFRNa+,[6]; [10],67 ± 3%
same,Plasma cGMP,[6]; [10],11 ± 1 pmol/mL
same,Renal generation of cGMP,[6]; [10],452 ± 202 pmol/min
same,Urinary cGMP excretion,[6]; [10],1119 ± 102 pmol/min
same,Urine flow,[6]; [10],0.3 ± 0.06 mL/min
same,DFRNa+,[6]; [11],98 ± 0.5%
same,GFR,[6]; [11],39 ± 3 mL/min
same,Na^+ excretion,[6]; [11],71 ± 8 μEq/min
same,PFRNa+,[6]; [11],51 ± 7 %
same,Plasma cGMP,[6]; [11],12 ± 1 pmol/mL
same,Renal generation of cGMP,[6]; [11],603 ± 199 pmol/min
same,Urinary cGMP excretion,[6]; [11],1338 ± 81 pmol/min
same,Urine flow,[6]; [11],0.4 ± 0.02 mL/min
same,DFRNa+,[6]; post-infusion,99 ± 0.2%
same,GFR,[6]; post-infusion,44 ± 3 mL/min
same,Na^+ excretion,[6]; post-infusion,30 ± 8 μEq/min
same,PFRNa+,[6]; post-infusion,68 ± 3 %
same,Plasma cGMP,[6]; post-infusion,12 ± 1 pmol/mL
same,Renal generation of cGMP,[6]; post-infusion,582 ± 91 pmol/min
same,Urinary cGMP excretion,[6]; post-infusion,1090 ± 76 pmol/min
same,Urine flow,[6]; post-infusion,0.3 ± 0.04 mL/min
same,DFRNa+,[6]; pre-infusion,99 ± 0.5%
same,GFR,[6]; pre-infusion,38 ± 4 mL/min
same,Na^+ excretion,[6]; pre-infusion,16 ± 6 μEq/min
same,PFRNa+,[6]; pre-infusion,83 ± 3%
same,Plasma cGMP,[6]; pre-infusion,8 ± 1 pmol/mL
same,Renal generation of cGMP,[6]; pre-infusion,491 ± 65 pmol/min
same,Urinary cGMP excretion,[6]; pre-infusion,830 ± 74 pmol/min
same,Urine flow,[6]; pre-infusion,0.1 ± 0.02 mL/min
"URO: human urodilatin, natriuretic polypeptide (TAPRSLRRSSCFGGRMDRIGAQSGLGCNSFRY; ends and bridges not checked; cysteine pairing not given here; UniProt P01160 120-151, looked up)",RPP (mean ± SEM),[3]; [9],119 ± 4 mmHg
same,RPP (mean ± SEM),[3]; Pre-I,127 ± 4 mmHg
same,cGMP,[7],0.54 ± 0.10 fmol/µg
same,Hematocrit (mean ± SEM),[2]; [8],40 ± 1 %
same,Hematocrit (mean ± SEM),[2]; Baseline,37 ± 1%
same,cGMP (mean ± SEM),[4],0.69 ± 0.07 fmol/µg
